Measured values from patent US12258360B2, “Compositions and methods for treatment of anticancer-drug resistant cancers” (THE GEORGE WASHINGTON UNIVERSITY, priority 2020, dated 2025).
Structures can show the parent of a compound that is named as a salt.

These molecules were tested against T1, And-1 protein fused to a luciferase reporter gene (Homo sapiens, UniProt O75717) (assay: quantitative HTS (qHTS) of LOPAC library in HEK293T-And-1-Luc cells (luciferase read-out of And-1 level)). Settings: HTS assay, average of 1 and 2; read-out: IC50 (μM) average.
T1 sequence (O75717 1-1129): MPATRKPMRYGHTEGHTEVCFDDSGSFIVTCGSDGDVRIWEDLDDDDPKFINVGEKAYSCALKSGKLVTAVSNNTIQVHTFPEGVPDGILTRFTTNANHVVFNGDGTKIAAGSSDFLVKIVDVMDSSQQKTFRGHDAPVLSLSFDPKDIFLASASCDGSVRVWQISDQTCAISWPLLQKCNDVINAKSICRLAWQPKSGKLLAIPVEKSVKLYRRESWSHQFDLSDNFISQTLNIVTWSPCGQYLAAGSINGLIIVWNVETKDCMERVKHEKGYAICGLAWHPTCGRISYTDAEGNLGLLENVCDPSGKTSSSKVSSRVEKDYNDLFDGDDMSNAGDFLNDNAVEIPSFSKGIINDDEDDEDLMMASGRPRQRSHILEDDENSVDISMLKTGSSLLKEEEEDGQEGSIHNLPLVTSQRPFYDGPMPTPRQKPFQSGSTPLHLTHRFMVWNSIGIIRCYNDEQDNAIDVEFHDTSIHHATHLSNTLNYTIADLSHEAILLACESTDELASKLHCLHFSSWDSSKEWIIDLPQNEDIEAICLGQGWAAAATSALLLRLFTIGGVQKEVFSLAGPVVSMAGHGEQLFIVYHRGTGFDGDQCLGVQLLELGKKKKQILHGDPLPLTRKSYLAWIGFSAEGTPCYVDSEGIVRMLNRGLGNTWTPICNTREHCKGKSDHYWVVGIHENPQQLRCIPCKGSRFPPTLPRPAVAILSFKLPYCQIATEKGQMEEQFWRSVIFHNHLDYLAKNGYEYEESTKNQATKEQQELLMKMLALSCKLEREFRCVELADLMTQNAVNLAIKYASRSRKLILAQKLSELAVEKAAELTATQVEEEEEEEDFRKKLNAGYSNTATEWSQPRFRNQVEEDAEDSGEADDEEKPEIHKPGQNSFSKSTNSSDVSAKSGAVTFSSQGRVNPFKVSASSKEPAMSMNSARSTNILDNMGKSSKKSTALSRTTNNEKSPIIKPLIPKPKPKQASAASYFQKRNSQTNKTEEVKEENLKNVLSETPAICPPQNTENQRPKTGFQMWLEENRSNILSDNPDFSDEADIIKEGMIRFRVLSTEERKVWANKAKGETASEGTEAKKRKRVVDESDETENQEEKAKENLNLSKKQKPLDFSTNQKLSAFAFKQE
Type: cell-based
Excerpt: To identify And-1 specific pharmacologic inhibitors, a high-throughput screening (HTS) assay was established to identify small molecules that can inhibit And-1 by inducing its degradation. For this assay, two stable cell lines, a HEK293T-And-1-Luc cell expressing And-1 protein fused to a luciferase reporter gene, and a HEK293T-Luc cell expressing luciferase only were generated (FIG. 13A). HEK293T-And-1-Luc cells allowed for assessment of And-1 protein levels by measuring luciferase activity in a high throughput manner.

Row | DC50 | SMILES | IC50
1 |  | C=CCc1cccc(/C=N/NC(=O)CN2CCN(Cc3ccccc3)CC2)c1O [PAC-1] | 21.3 µM
2 | 3.03 µM | CCN(CC)CCOc1ccc(Nc2ncc3cc(-c4c(Cl)cccc4Cl)c(=O)n(C)c3n2)cc1 [PD-166285 hydrate] | 
3 |  | C/C=C(/C)C(=O)O[C@H]1C(C)=C2[C@H]([C@@H]1OC(=O)CCCCCCC)[C@@](C)(OC(C)=O)C[C@H](OC(=O)CCC)[C@@]1(O)[C@H]2OC(=O)[C@@]1(C)O [Thapsigargin] | 6.95 µM

Same assay, conditions: HTS assay, determination 1; read-out: IC50 (μM) 1

Row | IC50 | DC50 | SMILES
4 | 1.67 µM |  | COc1cc2c(cc1O)CC[C@@H]1[C@@H]2CC[C@]2(C)[C@@H](O)CC[C@@H]12 [2-methoxyestradiol]
5 | 0.02 µM |  | Nc1ccn([C@@H]2O[C@H](CO)[C@@H](O)C2(F)F)c(=O)n1 [Gemcitabine hydrochloride]
6 | 18.8 µM |  | C=CCc1cccc(/C=N/NC(=O)CN2CCN(Cc3ccccc3)CC2)c1O [PAC-1]
7 |  | 3.33 µM | CCN(CC)CCOc1ccc(Nc2ncc3cc(-c4c(Cl)cccc4Cl)c(=O)n(C)c3n2)cc1 [PD-166285 hydrate]
8 |  | 0.61 µM | CC[C@@]1(O)C(=O)OCc2c1cc1n(c2=O)Cc2cc3c(CN(C)C)c(O)ccc3nc2-1 [Topotecan hydrochloride hydrate]

Row | SMILES | IC50 | DC50
9 | CC[C@@]1(O)C(=O)OCc2c1cc1n(c2=O)Cc2cc3ccccc3nc2-1 [(S)-(+)-Camptothecin] | 0.73 µM | 
10 | C/C=C(/C)C(=O)O[C@H]1C(C)=C2[C@H]([C@@H]1OC(=O)CCCCCCC)[C@@](C)(OC(C)=O)C[C@H](OC(=O)CCC)[C@@]1(O)[C@H]2OC(=O)[C@@]1(C)O [Thapsigargin] | 13.3 µM | 

Same assay, conditions: HTS assay, determination 2

Row | IC50 (μM) 2 | SMILES
11 | inactive | COc1cc2c(cc1O)CC[C@@H]1[C@@H]2CC[C@]2(C)[C@@H](O)CC[C@@H]12 [2-methoxyestradiol]
12 | inactive | Nc1ccn([C@@H]2O[C@H](CO)[C@@H](O)C2(F)F)c(=O)n1 [Gemcitabine hydrochloride]
13 | inactive | CC[C@@]1(O)C(=O)OCc2c1cc1n(c2=O)Cc2cc3c(CN(C)C)c(O)ccc3nc2-1 [Topotecan hydrochloride hydrate]

Row | SMILES | IC50 (μM) 2
14 | CC[C@@]1(O)C(=O)OCc2c1cc1n(c2=O)Cc2cc3ccccc3nc2-1 [(S)-(+)-Camptothecin] | inactive

Same assay, conditions: HTS assay, determination 2; read-out: IC50 (μM) 2

Row | DC50 | SMILES | IC50
15 |  | C=CCc1cccc(/C=N/NC(=O)CN2CCN(Cc3ccccc3)CC2)c1O [PAC-1] | 23.8 µM
16 | 2.73 µM | CCN(CC)CCOc1ccc(Nc2ncc3cc(-c4c(Cl)cccc4Cl)c(=O)n(C)c3n2)cc1 [PD-166285 hydrate] | 
17 |  | C/C=C(/C)C(=O)O[C@H]1C(C)=C2[C@H]([C@@H]1OC(=O)CCCCCCC)[C@@](C)(OC(C)=O)C[C@H](OC(=O)CCC)[C@@]1(O)[C@H]2OC(=O)[C@@]1(C)O [Thapsigargin] | 0.63 µM

Each molecule was assayed on SREBP target gene SCD-1 (assay: RT-PCR detection of SCD-1 gene expression in AN3CA cells). Settings: AN3CA cells, 10 μM.
Type: cell-based, human
Procedure: • 1. Experimental reagent • 2. The experimental steps are as follows: • 2.1 AN3CA cell recovery and culture (10% serum 1% double antibody in MEM medium); • 2.2 passages (passage at a ratio of 1:2); • 2.3 Place 6 well plates when the cell status is good, 5×10^5Well, culture overnight; • 2.4 adding medicine: diluting the final concentration of the drug with a culture medium to 10 μM, 2 mL/well; • 2.5 adding medicine for 48 h, and then extracting RNA; • 2.5.1 removing the culture medium, adding 0.5 mL/hole Trizol to lyse the cells, repeatedly blowing and beating the cells by a pipette after 5 min, completely lysing the cells, transferring the cells into a 1.5 mL EP tube without RNase, and standing the tube for 5 min; • 2.5.2 adding 200 µl chloroform, shaking rapidly, mixing, standing for 10 min 12000 rpm/15 min; • 2.5.3 carefully taking out the supernatant, transferring the supernatant into an EP tube, adding isopropanol with the same volume, reversing, uniformly mixing, standing for 10 min, and centrifuging at 12000 rpm/10 min; • 2.5.4 removing the supernatant, adding 1 mL of 75% ethanol for washing, centrifuging at 8000 rpm/5 min once, carefully removing the supernatant, standing at room temperature for 10 min to volatilize the ethanol, and dissolving the precipitate with 40 μL of DEPC treated water when the precipitate becomes transparent; • 2.5.5 RNA concentration was measured and DEPC-treated water was diluted to 100 ng/μL • 2.6 reverse transcription: Kit Takara (PrimeScript RT reagent Kit (Perfect Real Time)

Row | SMILES | activity of reducing SCD-1 gene expression (in words)
18 | OB1OCc2cc(Cl)ccc21 [travaborole, reference compound] | do not have the activity of reducing the expression of SCD-1 gene

Same assay, conditions: AN3CA cells, 10 μM, 48 h; DMSO = 1

Row | SMILES | Relative mRNA expression of SCD-1
19 | OB1OCc2cc(/C=C/c3cccc(F)c3)ccc21 [IX, (E)-5-(3-fluorostyryl)benzo[c][1,2]oxaborol-1(3H)-ol] | 0.72
20 | OB1OCc2cc(/C=C/c3ccccc3C(F)(F)F)ccc21 [VI, (E)-5-(2-(trifluoromethyl)styryl)benzo[c][1,2]oxaborol-1(3H)-ol] | 1.03
21 | OB1OCc2cc(/C=C/c3ccc(C(F)(F)F)cc3)ccc21 [VII, (E)-5-(4-(trifluoromethyl)styryl)benzo[c][1,2]oxaborol-1(3H)-ol] | 1.07
22 | OB1OCc2cc(/C=C/c3cc(F)cc(C(F)(F)F)c3)ccc21 [V] | 0.72
23 | OB1OCc2cc(Cl)ccc21 [travaborole, reference compound] | 1.08
